In patent US11584747B2, “Substituted pyridopyrimidinonyl compounds useful as T cell activators” (BRISTOL-MYERS SQUIBB COMPANY, priority 2019, dated 2023):
Like-named read-outs stand apart in the source and are kept apart here.

Tests used:
human DGKζ = human DGKζ (Homo sapiens (Human), UniProt Q13574); assay: DGKζ LIPGLO assay (extruded liposome substrate, ADP-Glo luminescence); type: biochemical
human DGKα = human DGKα (Homo sapiens (Human), UniProt P23743); assay: DGKα ADPGLO assay (detergent/lipid micelle substrate); type: biochemical
Sequence of human DGKα (P23743 whole entry, looked up, the tested form may be a part): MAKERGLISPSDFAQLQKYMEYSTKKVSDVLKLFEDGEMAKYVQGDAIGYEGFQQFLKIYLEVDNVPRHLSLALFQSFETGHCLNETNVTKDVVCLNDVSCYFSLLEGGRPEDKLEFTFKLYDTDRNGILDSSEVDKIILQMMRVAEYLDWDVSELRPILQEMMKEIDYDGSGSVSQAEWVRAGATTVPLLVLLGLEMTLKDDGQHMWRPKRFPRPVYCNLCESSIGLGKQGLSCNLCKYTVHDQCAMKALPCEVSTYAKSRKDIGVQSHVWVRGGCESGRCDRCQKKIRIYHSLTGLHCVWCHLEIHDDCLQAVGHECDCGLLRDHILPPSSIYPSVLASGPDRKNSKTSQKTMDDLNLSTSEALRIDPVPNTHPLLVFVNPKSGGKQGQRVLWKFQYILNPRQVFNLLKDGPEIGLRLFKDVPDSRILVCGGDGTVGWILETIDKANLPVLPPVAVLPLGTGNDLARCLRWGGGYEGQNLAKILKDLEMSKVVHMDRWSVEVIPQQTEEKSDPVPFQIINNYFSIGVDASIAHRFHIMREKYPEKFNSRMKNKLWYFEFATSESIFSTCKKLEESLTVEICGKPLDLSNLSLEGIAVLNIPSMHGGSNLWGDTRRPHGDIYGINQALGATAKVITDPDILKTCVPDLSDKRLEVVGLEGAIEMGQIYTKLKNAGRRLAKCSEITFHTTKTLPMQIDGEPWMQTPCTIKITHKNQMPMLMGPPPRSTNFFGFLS
Protocol: DGK Alpha ADPGLO (Truncated) IC50 (uM)
The detergent/lipid micelle was prepared by combining 15 g phosphatidylserine (Avanti 840035P) and 1 g diacylglycerol (8008110) and dissolving into 150 mL chloroform in a 2 L round bottom flask. Chloroform was removed under high vacuum by rotary evaporation. […] The lipid/detergent solution was split into 5 mL aliquots and stored at −80° C.

[1] = liposome assay, read-out: DGK zeta LIPGLO IC50
[2] = truncated DGK alpha, read-out: DGK alpha ADPGLO (Truncated) IC50
[3] = liposome (LIPGLO) assay, read-out: DGK zeta (liposome assay) IC50
[4] = ADPGLO assay, read-out: DGK alpha ADPGLO IC50

Sequence of human DGKζ (Q13574 other isoform, or with tags, fused parts or gaps): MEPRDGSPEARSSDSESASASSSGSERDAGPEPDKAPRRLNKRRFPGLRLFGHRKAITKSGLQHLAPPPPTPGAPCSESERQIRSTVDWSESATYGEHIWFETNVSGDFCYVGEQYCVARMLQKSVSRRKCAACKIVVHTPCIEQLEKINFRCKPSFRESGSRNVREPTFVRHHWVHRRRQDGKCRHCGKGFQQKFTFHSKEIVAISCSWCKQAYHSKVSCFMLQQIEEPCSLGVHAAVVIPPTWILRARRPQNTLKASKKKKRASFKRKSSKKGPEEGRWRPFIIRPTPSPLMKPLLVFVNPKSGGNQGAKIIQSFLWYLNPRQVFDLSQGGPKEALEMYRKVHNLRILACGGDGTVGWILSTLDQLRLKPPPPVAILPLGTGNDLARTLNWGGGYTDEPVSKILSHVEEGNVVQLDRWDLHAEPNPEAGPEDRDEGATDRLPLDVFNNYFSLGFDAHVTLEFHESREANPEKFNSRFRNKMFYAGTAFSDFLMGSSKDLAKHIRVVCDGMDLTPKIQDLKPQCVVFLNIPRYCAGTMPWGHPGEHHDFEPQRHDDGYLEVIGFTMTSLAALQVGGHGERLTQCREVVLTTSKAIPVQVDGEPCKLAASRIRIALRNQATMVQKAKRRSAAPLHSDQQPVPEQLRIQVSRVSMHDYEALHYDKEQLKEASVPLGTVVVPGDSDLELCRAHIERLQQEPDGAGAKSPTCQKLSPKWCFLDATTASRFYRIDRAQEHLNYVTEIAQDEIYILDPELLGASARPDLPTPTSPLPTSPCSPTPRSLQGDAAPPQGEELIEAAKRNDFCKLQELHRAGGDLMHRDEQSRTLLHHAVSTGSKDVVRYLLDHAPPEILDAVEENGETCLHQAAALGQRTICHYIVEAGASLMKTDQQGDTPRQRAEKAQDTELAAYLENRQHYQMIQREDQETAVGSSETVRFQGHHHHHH

| Structure (SMILES) | IC50 (human DGKζ; [1]) | IC50 (human DGKα; [2]) | IC50 (human DGKζ; [3]) | IC50 (human DGKα; [4]) |
| --- | --- | --- | --- | --- |
| CC[C@H]1CN(C(C)c2ccc(CN3CCC(O)CC3)cc2)[C@H](CC)CN1c1nc(=O)n(C)c2ccc(C#N)nc12 (stereo partly drawn) [Example 286, 4-((2S,5R)-2,5-diethyl-4-(1-(4-((4-hydroxypiperidin-1-yl)methyl)phenyl)ethyl)piperazin-1-yl)-1-methyl-2-oxo-1,2-dihydropyrido[3,2-d]pyrimidine-6-carbonitrile] | 125000 nM | 36200 nM | – | – |
| CCOc1ccc2c(n1)c(N1C[C@@H](CC)N(C(CC)c3ccc(C(F)(F)F)cc3)C[C@@H]1CC)nc(=O)n2C (stereo partly drawn) [Example 438, 4-((2S,5R)-2,5-diethyl-4-(1-(4-(trifluoromethyl)phenyl)propyl)piperazin-1-yl)-6-ethoxy-1-methylpyrido[3,2-d]pyrimidin-2(1H)-one] | – | – | 250000 nM | 175000 nM |
| CCC(c1ccc(C2CC2)cc1)N1C[C@H](C)N(c2nc(=O)n(C)c3ccc(C#N)nc23)C[C@H]1CC (stereo partly drawn) [Example 301, 4-((2S,5R)-4-(1-(4-cyclopropylphenyl)propyl)-5-ethyl-2-methylpiperazin-1-yl)-1-methyl-2-oxo-1,2-dihydropyrido[3,2-d]pyrimidine-6-carbonitrile] | 430 nM | 130 nM | – | – |
| CCOC(=O)[C@H]1C[C@@H]1Oc1ccc(C(C)N2C[C@H](CC)N(c3nc(=O)n(C)c4ccc(C#N)nc34)C[C@H]2CC)cc1 (stereo partly drawn) [Example 259, ethyl (1S,2S)-2-(4-(1-((2R,5S)-4-(6-cyano-1-methyl-2-oxo-1,2-dihydropyrido[3,2-d]pyrimidin-4-yl)-2,5-diethylpiperazin-1-yl)ethyl)phenoxy)cyclopropane-1-carboxylate] | 1800 nM | 2170 nM | – | – |
| CCC(C1CC(F)(F)C1)N1C[C@H](C)N(c2nc(=O)n(C)c3ccc(C#N)nc23)C[C@H]1C (stereo partly drawn) [Example 457, 4-((2S,5R)-4-(1-(3,3-difluorocyclobutyl)propyl)-2,5-dimethylpiperazin-1-yl)-1-methyl-2-oxo-1,2-dihydropyrido[3,2-d]pyrimidine-6-carbonitrile] | – | – | 1050 nM | 4010 nM |
| CC[C@H]1CN(C(C)c2ccc(C(F)(F)F)cc2)[C@H](CC)CN1c1nc(=O)n(C)c2ccc(OC(F)F)nc12 (stereo partly drawn) [Example 444, 4-((2S,5R)-2,5-Diethyl-4-(1-(4-(trifluoromethyl)phenyl)ethyl)piperazin-1-yl)-6-(difluoromethoxy)-1-methylpyrido[3,2-d]pyrimidin-2(1H)-one] | – | – | 180 nM | 400 nM |
| CCC(c1ccc(C2CC2)cc1F)N1C[C@H](C)N(c2nc(=O)n(C)c3ccc(C#N)nc23)C[C@H]1C (stereo partly drawn) [Example 381, 4-((2S,5R)-4-(1-(4-cyclopropyl-2-fluorophenyl)propyl)-2,5-dimethylpiperazin-1-yl)-1-methyl-2-oxo-1,2-dihydropyrido[3,2-d]pyrimidine-6-carbonitrile] | – | – | 3410 nM | 850 nM |
| CC[C@H]1CN(C(C)c2ccc(C(F)(F)F)cc2)[C@H](CC)CN1c1nc(=O)n(C)c2ccc(COC)nc12 (single isomer, unassigned) [Example 424] | – | – | 4590 nM | 114000 nM |
| CC[C@H]1CN(C(C)c2ccc(CN3CCC(F)(F)CC3)cc2)[C@H](CC)CN1c1nc(=O)n(C)c2ccc(C#N)nc12 (stereo partly drawn) [Example 277, 4-((2S,5R)-4-(1-(4-((4,4-difluoropiperidin-1-yl)methyl)phenyl)ethyl)-2,5-diethylpiperazin-1-yl)-1-methyl-2-oxo-1,2-dihydropyrido[3,2-d]pyrimidine-6-carbonitrile] | 18 nM | 160 nM | – | – |
| CCC(c1ccc(OC2CC2)cc1)N1C[C@H](C)N(c2nc(=O)n(C)c3ccc(C#N)nc23)C[C@H]1CC (stereo partly drawn) [Example 312, 4-((2S,5R)-4-(1-(4-cyclopropoxyphenyl)propyl)-5-ethyl-2-methylpiperazin-1-yl)-1-methyl-2-oxo-1,2-dihydropyrido[3,2-d]pyrimidine-6-carbonitrile] | – | – | 870 nM | 600 nM |
| CC[C@H]1CN(C(C)c2ccc(C3(C)CC3)cc2)[C@H](CC)CN1c1nc(=O)n(C)c2ccc(C#N)nc12 (stereo partly drawn) [Example 218, 4-((2S,5R)-2,5-diethyl-4-(1-(4-(1-methylcyclopropyl)phenyl)ethyl)piperazin-1-yl)-1-methyl-2-oxo-1,2-dihydropyrido[3,2-d]pyrimidine-6-carbonitrile] | 18 nM | 78 nM | – | – |
| CC[C@H]1CN(C(c2ccc(F)cc2)c2cccc(C(F)F)n2)[C@H](CC)CN1c1nc(=O)n(C)c2ccc(C#N)nc12 (stereo partly drawn) [Example 258, 4-((2S,5R)-4((6-(difluoromethyl)pyridin-2-yl)(4-fluorophenyl)methyl)-2,5-diethylpiperazin-1-yl)-1-methyl-2-oxo-1,2-dihydropyrido[3,2-d]pyrimidine-6-carbonitrile] | 360 nM | 64 nM | – | – |
| CCC(c1ccc(C2CC2)cc1)N1C[C@H](C)N(c2nc(=O)n(C)c3ccc(C#N)nc23)C[C@H]1C (stereo partly drawn) [Example 378, 4-((2S,5R)-4-(1-(4-cyclopropylphenyl)propyl)-2,5-dimethylpiperazin-1-yl)-1-methyl-2-oxo-1,2-dihydropyrido[3,2-d]pyrimidine-6-carbonitrile] | – | – | 150 nM | 160 nM |
| CC[C@H]1CN(C(C)c2ccc(C3(C#N)CC3)cc2)[C@H](CC)CN1c1nc(=O)n(C)c2ccc(C#N)nc12 (stereo partly drawn) [Example 263, 4-((2S,5R)-4-(1-(4-(1-cyanocyclopropyl)phenyl)ethyl)-2,5-diethylpiperazin-1-yl)-1-methyl-2-oxo-1,2-dihydropyrido[3,2-d]pyrimidine-6-carbonitrile] | 62 nM | 290 nM | – | – |
| CCC(c1ccc(Br)cc1)N1C[C@H](C)N(c2nc(=O)n(C)c3ccc(C#N)nc23)C[C@H]1CC (stereo partly drawn) [Example 322, 4-((2 S,5R)-4-(1-(4-bromophenyl)propyl)-5-ethyl-2-methylpiperazin-1-yl)-1-methyl-2-oxo-1,2-dihydropyrido[3,2-d]pyrimidine-6-carbonitrile] | – | – | 760 nM | 7 nM |

Other lines, results leading:

| IC50 (human DGKζ; [1]) | IC50 (human DGKα; [2]) | IC50 (human DGKζ; [3]) | IC50 (human DGKα; [4]) | Structure (SMILES) |
| --- | --- | --- | --- | --- |
| – | – | 38 nM | 10 nM | CCC(c1ccc(Br)cc1)N1C[C@H](C)N(c2nc(=O)n(C)c3ccc(C#N)nc23)C[C@H]1CC (stereo partly drawn) [Example 321, 4-((2 S,5R)-4-(1-(4-bromophenyl)propyl)-5-ethyl-2-methylpiperazin-1-yl)-1-methyl-2-oxo-1,2-dihydropyrido[3,2-d]pyrimidine-6-carbonitrile] |
| – | – | 64 nM | 90 nM | CCC(c1ccc(C(F)(F)F)cc1)N1C[C@H](C)N(c2nc(=O)n(C)c3ccc(C#N)nc23)C[C@H]1COC (single isomer, unassigned) [Example 398] |
| – | – | 12500 nM | 83300 nM | CC[C@H]1CN(C(C)c2ccc(C(F)(F)F)cc2)[C@H](CC)CN1c1nc(=O)n(C)c2ccc(COC)nc12 (single isomer, unassigned) [Example 425] |
| 1170 nM | 750 nM | – | – | CC[C@H]1CN(C(C)c2ccc(C3(C#N)CC3)cc2)[C@H](CC)CN1c1nc(=O)n(C)c2ccc(C#N)nc12 (stereo partly drawn) [Example 264, 4-((2S,5R)-4-(1-(4-(1-cyanocyclopropyl)phenyl)ethyl)-2,5-diethylpiperazin-1-yl)-1-methyl-2-oxo-1,2-dihydropyrido[3,2-d]pyrimidine-6-carbonitrile] |
| 5070 nM | 1770 nM | – | – | CCC(c1ccc(C2CC2)cc1F)N1C[C@H](C)N(c2nc(=O)n(C)c3ccc(C#N)nc23)C[C@H]1CC (stereo partly drawn) [Example 303, 4-((2S,5R)-4-(1-(4-cyclopropyl-2-fluorophenyl)propyl)-5-ethyl-2-methylpiperazin-1-yl)-1-methyl-2-oxo-1,2-dihydropyrido[3,2-d]pyrimidine-6-carbonitrile] |
| – | – | 770 nM | 140 nM | CCOc1ccc(C(CC)N2C[C@H](C)N(c3nc(=O)n(C)c4ccc(C#N)nc34)C[C@H]2CC)cc1 (stereo partly drawn) [Example 307, 4-((2S,5R)-4-(1-(4-ethoxyphenyl)propyl)-5-ethyl-2-methylpiperazin-1-yl)-1-methyl-2-oxo-1,2-dihydropyrido[3,2-d]pyrimidine-6-carbonitrile] |
| 13 nM | 12 nM | – | – | CCC(c1ccc(C2CC2)cc1)N1C[C@H](CC)N(c2nc(=O)n(C)c3ccc(C#N)nc23)C[C@H]1CC (stereo partly drawn) [Example 200, 4-((2S,5R)-4-(1-(4-cyclopropylphenyl)propyl)-2,5-diethylpiperazin-1-yl)-1-methyl-2-oxo-1,2-dihydropyrido[3,2-d]pyrimidine-6-carbonitrile] |
| – | – | 2250 nM | 1170 nM | CC[C@@H]1CN(c2nc(=O)n(C)c3ccc(C#N)nc23)[C@@H](C)CN1C(c1nnc(C2CC2)o1)C(C)C (single isomer, unassigned) [Example 368] |
| 260 nM | 580 nM | – | – | CC[C@@H]1CN(c2nc(=O)n(C)c3ccc(C#N)nc23)[C@@H](CC)CN1CC1CCC(F)(F)CC1 [Example 269, 4-((2S,5R)-4-((4,4-difluorocyclohexyl)methyl)-2,5-diethylpiperazin-1-yl)-1-methyl-2-oxo-1,2-dihydropyrido[3,2-d]pyrimidine-6-carbonitrile] |
| 43600 nM | 7170 nM | – | – | CC[C@H]1CN(C(C)c2ccc(CN3CCCCC3)cc2)[C@H](CC)CN1c1nc(=O)n(C)c2ccc(C#N)nc12 (stereo partly drawn) [Example 281, 4-((2S,5R)-2,5-diethyl-4-(1-(4-(piperidin-1-ylmethyl)phenyl)ethyl)piperazin-1-yl)-1-methyl-2-oxo-1,2-dihydropyrido[3,2-d]pyrimidine-6-carbonitrile] |
| 2150 nM | 2850 nM | – | – | CC[C@H]1CN(C(C)c2ccc3oc(C4CC4)nc3c2)[C@H](CC)CN1c1nc(=O)n(C)c2ccc(C#N)nc12 (stereo partly drawn) [Example 254, 4-((2S,5R)-4-(1-(2-cyclopropylbenzo[d]oxazol-5-yl)ethyl)-2,5-diethylpiperazin-1-yl)-1-methyl-2-oxo-1,2-dihydropyrido[3,2-d]pyrimidine-6-carbonitrile] |
